These results are taken from PMC8023571, “Multiple Applications of a Novel Biarsenical Imaging Probe in Fluorescence and PET Imaging of Melanoma” (Bioconjugate Chemistry, 2021).

In data set [1] the test system is Cys-Cys-Pro-Gly-Cys-Cys (CCPGCC) sequence. Conditions: four As-S bonds with CCPGCC; cited from earlier work. The source says: In 1998, Griffin et al. described a system for fluorescent imaging using a biarsenical fluorescein analogue system now widely known as FlAsH.[6] This system relied on a reversible soft Lewis acid–base reaction between As(III) and S(-II) of cysteine. […] Since this sequence is uncommon in natural proteins, it requires installation via genetic alteration of the organism where the protein is expressed; in small peptides, it can be introduced during chemical synthesis. However, as ...

Data set [2] is described as follows: PET measurement of organ distribution in a nonhuman primate. The class given is in vivo, cynomolgus monkey. Particulars: i.v.; NHP. As to the method:
Second, high background affinity to any organ would severely hamper protein imaging in that organ. In order to test if 1 fulfilled these prerequisites, a […] dynamic PET measurement was performed after an intravenous injection of [^11C]CH3-1, with the upper body of a nonhuman primate subject (NHP) in the field of view. […] The high radioactivity in the liver and the low uptake in the brain likely prohibits the use of 1 for pretargeting in these organs. […] Blood samples were taken at multiple time points during the NHP PET measurements for the purpose of analyzing radiolabeled metabolites in plasma.
Figure 3 (a) Summation PET image of NHP showing the distribution of [^11C]CH3-1 from 3 to 60 min after intravenous injection. (b) Time–activity curves showing organ distribution following intravenous injection of [^11C]CH3-1.
Image- and Statistical Analysis
The acquired list mode data was reconstructed into […] (93 min scan = 4x10 s, 4x20 s, 4x60 s, 7x180 s, 11x360 s). The image reconstruction was made with a fully 3-dimensional maximum-likelihood expectation maximization algorithm (MLEM) with 20 iterations, without scatter and attenuation correction. […] The regional uptake values were expressed as standard uptake value (SUV), which normalizes for injected radioactivity and body weight. […]

In the case of `O=C(O)c1ccccc1-c1c2ccc(=O)c([As]3SCCS3)c-2oc2c([As]3SCCS3)c(O)ccc12` [FlAsH], the binding constant result in data set [1] was “high binding constant”.
For the compound `O=c1cc2oc3c([As]4SCCS4)c(O)ccc3c(-c3ccc(F)cc3)c-2cc1[As]1SCCS1` [compound 1], the “background radioactivity in lungs and heart” value in data set [2] is “intermediate background radioactivity”.
